Data set [1] relates to A/teal/Egypt/MB.D125OP/2015 (H7N3, 125OP). Put plainly: organism not typed. The format is cell-based, avian influenza H7N3 virus. To be noted: MDCK, 72 h, read-out: IC50 125OP.
Data set [2] relates to A/teal/Egypt/MB.D487OP/2016 (H7N3, 487OP). Put plainly: organism not typed. The format is cell-based, avian influenza H7N3 virus. To be noted: MDCK, 72 h, read-out: IC50 487OP.
For data set [3], the system named is A/northern shoveler/Egypt/MB.D690OP/2016 (H7N3, 690OP). Put plainly: organism not typed. The format is cell-based, avian influenza H7N3 virus. To be noted: MDCK, 72 h, read-out: IC50 690OP.
Another data set can be described thus: in vitro. To be noted: dog.
The test system of data set [4] is A/Puerto Rico/8/34 (H1N1). Put plainly: microbe, parasite or virus in culture. It is filed as cell-based. To be noted: Influenza A virus, H1N1, MDCK, 72 h, read-out: IC50 H1N1.
Data set [5] has as its system A/teal/Egypt/MB.D128OP/2015 (H7N3, 128OP). Put plainly: organism not typed. It is filed as cell-based, avian influenza H7N3 virus. To be noted: read-out: IC50 128OP.
The subject of data set [6] is Madin-Darby canine kidney (MDCK) cells. To be noted: dog.

Each structure is given as a SMILES string. Read-outs that look alike come from different tables or passages of the source.

For orientation: IC50 means the concentration at which inhibition is half-maximal. Regarding `NC12CC3CC(CC(C3)C1)C2` [Amantadine, amantadine], the IC50 worked out at 17 µM in data set [1]; 5.17 µM in data set [2]; 6.5 µM in data set [3]; 77.3 µM in data set [4]; 45.2 µM in data set [5] (MDCK, 72 h). The compound also showed a CC50 in “in vitro” of 584 µM.
In the case of `NC(=O)c1nc(F)c[nH]c1=O` [Favipiravir, favipiravir], the IC50 in data set [1] was 3.9 µM; in data set [2], 5.4 µM; in data set [3] it was 4.5 µM; in data set [4], 57.7 µM; in data set [5] (MDCK, 72 h), 6.02 µM; in data set [5] it was 6.02 µM. This compound had a CC50 in the data set “in vitro” of 1250 µM.
On to `CCOC(=O)C1=C[C@@H](OC(CC)CC)[C@H](NC(C)=O)[C@@H](N)C1` [Oseltamivir, oseltamivir], for which the IC50 in data set [1] was found to be 408 µM; in data set [2] it was 15.7 µM; in data set [3], 6.46 µM; in data set [4] it was 51.2 µM; in data set [5] (MDCK, 72 h), 85.7 µM. Also, in the data set “in vitro”, the CC50 is 516 µM.
`CCC(CC)COC(=O)[C@H](C)N[P@](=O)(OC[C@H]1O[C@@](C#N)(c2ccc3c(N)ncnn23)[C@H](O)[C@@H]1O)Oc1ccccc1` [Remdesivir, remdesivir] returned a CC50 in data set [6] of 997 µM. Also, the IC50 in data set [1] turned out to be 44.5 µM; in data set [2], 19.1 µM; in data set [3] it was 41.6 µM; in data set [4], 140 µM; in data set [5] (MDCK, 72 h), 26 µM.
Turning to `CC(=O)N[C@H]1[C@H]([C@H](O)[C@H](O)CO)OC(C(=O)O)=C[C@@H]1N=C(N)N` [Zanamivir, zanamivir], the IC50 in data set [1] is 17.1 µM; in data set [2] it was 14.1 µM; in data set [3] it was 23.3 µM; in data set [4], 180 µM; in data set [5] (MDCK, 72 h) it was 85 µM. In addition, in “in vitro”, the CC50 turned out to be 1110 µM.

Source of the values: article PMC9909137 (Archives of Virology, 2023).
